Results taken from patent publication US5434052A, “Complementation assay for drug screening” (Microgenics Corporation, priority 1993, dated 1995).

T1: (Homo sapiens, UniProt P05543)
T1 construct: purchased Protus Laboratories, South San Francisco, CA
T1 sequence (P05543 21-415): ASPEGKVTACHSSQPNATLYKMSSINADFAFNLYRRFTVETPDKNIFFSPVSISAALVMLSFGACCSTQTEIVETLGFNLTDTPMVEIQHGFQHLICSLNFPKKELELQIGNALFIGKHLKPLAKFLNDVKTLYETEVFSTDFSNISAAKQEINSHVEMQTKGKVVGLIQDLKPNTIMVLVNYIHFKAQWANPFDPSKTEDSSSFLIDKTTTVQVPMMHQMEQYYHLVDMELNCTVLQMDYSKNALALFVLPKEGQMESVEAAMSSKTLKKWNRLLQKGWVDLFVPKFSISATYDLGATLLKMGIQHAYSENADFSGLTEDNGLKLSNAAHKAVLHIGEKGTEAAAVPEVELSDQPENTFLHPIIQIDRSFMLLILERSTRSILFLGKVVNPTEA


Columns and labels:
[1] = target: T2, bovine Folate Binding Protein (Bos taurus, UniProt P02702); test: Inhibition of ED14-Folate conjugate with folate binding protein; competition by folic acid sample, β-galactosidase complementation; set-up: dose or concentration left out as unconfirmed; details: folate binding protein diluted approximately 1:2500
T2 construct: purchased Biochemical Inc., Englewood, Colo
Description: Binding Protein Reagent consists of bovine Folate Binding Protein (Biochemical Inc., Englewood, Colo.) diluted approximately 1:2500 in 150 mM potassium phosphate, 50 mM sodium borate, 1% BSA (B12-Grade BSA, Sigma, St. Louis, Mo.), 1% Lubrol and 20 mM sodium azide, pH 7.0. ED14-Folate Conjugate/Substrate Reagent contains approximately 6.3 nM ED-Folate, 1.0 mg/ml OCNPG (o-chloro-p-nitrophenol galactopyranoside), 100 mM sodium phosphate, 150 mM potassium phosphate, 10 mM ethylene glycol tetraacetic acid, 2.5 mM dithiothreitol, 20 mM sodium azide, 0.05% Tween 20 with 0.05 mM dithiothreitol, pH 7.0. EA Reagent consists of a recombinant protein resembling the carboxyl-terminal end of β-galactosidase in 100 mM sodium phosphate, 150 mM potassium phosphate, 10 mM ethylene glycol tetraacetic acid, 5 mM magnesium acetate, 20 mM sodium azide, 0.05% Tween 20 with 0.05 mM dithiothreitol pH 7.0. EA concentration is approximately 2.2 μM. The assay procedure involves mixing of 300 μl of folic acid sample with 100 μl of binding protein reagent and incubation for 15 min at room temperature. This becomes the pretreated sample. An instrument (clinical chemistry analyzer) is programmed to deliver 30 μl of pretreated sample with 100 μl of ED-Folate reagent for 2 to 5 min at 37° C. This is followed by the addition of 220 μl of EA reagent to the reaction mixture by the instrument and the enzyme rate is read by absorbance change at […]. The following table indicates a typical assay performance.

[2] = target: T1, (Homo sapiens, UniProt P05543); test: Inhibition of ED4-T4 conjugate by thyroxin binding globulin, β-galactosidase complementation; details: 18 nM ED4-T4; for Observed Enzyme Rate: 420 nM, 37° C.
Description: Buffer=20 mM NaPO4 10 mM EGTA, 2 mM MgOAc, 3.6% Glycerol, 5 mM Sucrose, 20 mM NaN3, pH 7.0
Reagent=5U EA/Test or 31.25 U/ml of EA in EA Buffer
Buffer=20 mM NaPO4, 10 mM EGTA, 6.25 mg/ml ONPG, 0.05% Tween/DTT, 20 mM NaN3, pH 7.0
Reagent=18 nM ED4-T4 system concentration or 112.5 nM ED4-T4 in ED reagent buffer
Machine Program Parameters:
The receptor was purified TBG from Protus Laboratories, South San Francisco, CA diluted in PBS.

T2 sequence (P02702 20-241): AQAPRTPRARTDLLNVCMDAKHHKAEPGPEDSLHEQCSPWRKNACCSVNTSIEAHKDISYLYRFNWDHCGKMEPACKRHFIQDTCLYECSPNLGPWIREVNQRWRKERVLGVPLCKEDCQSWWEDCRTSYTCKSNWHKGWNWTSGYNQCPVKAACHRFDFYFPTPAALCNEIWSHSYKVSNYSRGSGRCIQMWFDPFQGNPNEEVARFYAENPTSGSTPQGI

% Inhibition of ED14-Folate Conjugate ([1]; folate in sample 20) [%]	Observed Enzyme Rate ([1]; folate in sample 20)	% Inhibition of ED14-Folate Conjugate ([1]; folate in sample 200) [%]	Observed Enzyme Rate ([1]; folate in sample 200)	% Inhibition ([2]; TBG receptor 18.3 μg/ml) [%]	Observed Enzyme Rate ([2]; TBG receptor 18.3 μg/ml) [mA/min]	% Inhibition ([2]; TBG receptor 55.0 μg/ml) [%]	Observed Enzyme Rate ([2]; TBG receptor 55.0 μg/ml) [mA/min]	Molecule
18.8	290	0.0	357	–	–	–	–	Nc1nc2ncc(CNc3ccc(C(=O)N[C@@H](CCC(=O)O)C(=O)O)cc3)nc2c(=O)[nH]1 [Folate, Folic acid]
–	–	–	–	22	367	68	154	TBG: purified TBG from Protus Laboratories, diluted in PBS (protein, UniProt P05543 21-415, looked up) Thyroxine-binding globulin: ASPEGKVTACHSSQPNATLYKMSSINADFAFNLYRRFTVETPDKNIFFSPVSISAALVMLSFGACCSTQTEIVETLGFNLTDTPMVEIQHGFQHLICSLNFPKKELELQIGNALFIGKHLKPLAKFLNDVKTLYETEVFSTDFSNISAAKQEINSHVEMQTKGKVVGLIQDLKPNTIMVLVNYIHFKAQWANPFDPSKTEDSSSFLIDKTTTVQVPMMHQMEQYYHLVDMELNCTVLQMDYSKNALALFVLPKEGQMESVEAAMSSKTLKKWNRLLQKGWVDLFVPKFSISATYDLGATLLKMGIQHAYSENADFSGLTEDNGLKLSNAAHKAVLHIGEKGTEAAAVPEVELSDQPENTFLHPIIQIDRSFMLLILERSTRSILFLGKVVNPTEA
